In patent US12624018B1, “Inhibitors of RIPK2 and medical uses thereof” (Odyssey Therapeutics, Inc., priority 2022, dated 2026) one finds IC50 data, which are given here for 21 compounds.

SMILES strings stand for the structures.

T1 sequence (O43353 1-299 limits assumed): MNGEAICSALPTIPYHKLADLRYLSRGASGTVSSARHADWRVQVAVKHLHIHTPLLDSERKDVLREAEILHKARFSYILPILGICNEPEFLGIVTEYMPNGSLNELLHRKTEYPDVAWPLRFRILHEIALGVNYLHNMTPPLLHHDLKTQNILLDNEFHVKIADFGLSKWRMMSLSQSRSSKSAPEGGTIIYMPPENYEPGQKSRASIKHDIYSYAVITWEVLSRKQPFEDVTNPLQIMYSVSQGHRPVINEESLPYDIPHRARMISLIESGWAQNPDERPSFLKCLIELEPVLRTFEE

The assay addresses T1, RIPK2 enzyme (Homo sapiens, UniProt O43353).
T1 construct: purchased Carna 09-128
Kind of assay: RIPK2 inhibition (ADP-Glo Kinase Assay). The assay is classed as biochemical. As to conditions: RIPK2 5 nM, ATP 150 μM, MBP substrate, read-out: RIPK2 IC50. Summed up: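 Human RIPK2 (5 nM) preincubated with compound 30 min at room temperature in 50 mM HEPES pH 7.5, 10 mM MgCl2, 2 mM DTT, 1 mM EGTA, 0.01% Brij-35, 0.05% BSA; native swine MBP as substrate. ADP formed quantified by ADP-Glo luminescence; percent inhibition relative to DMSO and no-enzyme controls.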
On to `Cc1cc(CC(=O)Nc2cnn(C(C)(C)C)c2)ccc1Oc1ccnc2ccc(S(=O)(=O)C3CNC3)cc12` [Compound 314, 2-(4-((6-(azetidin-3-ylsulfonyl)quinolin-4-yl)oxy)-3-methylphenyl)-N-(1-(tert-butyl)-1H-pyrazol-4-yl)acetamide], for which the IC50 (as a rule, the concentration needed to halve the response being measured) was less than 2.5 nM.

In the case of `Cc1c(Oc2ccnc3ccc(S(=O)(=O)C4CNC4)cc23)ccc(CC(=O)Nc2cnn(C(C)(C)C)c2)c1F` [Compound 315, 2-(4-((6-(azetidin-3-ylsulfonyl)quinolin-4-yl)oxy)-2-fluoro-3-methylphenyl)-N-(1-(tert-butyl)-1H-pyrazol-4-yl)acetamide], the IC50 is less than 2.5 nM.

As for `Cc1cc(CC(=O)Nc2cnn(C(C)(C)C)c2)c(F)cc1Oc1ccnc2ccc(S(=O)(=O)C3CNC3)cc12` [Compound 316, 2-(4-((6-(azetidin-3-ylsulfonyl)quinolin-4-yl)oxy)-2-fluoro-5-methylphenyl)-N-(1-(tert-butyl)-1H-pyrazol-4-yl)acetamide], the IC50 was less than 2.5 nM.

For the compound `Cc1cc(CC(=O)Nc2cnn(C(C)(C)C)c2)ccc1Oc1ccnc2ccc(N3CCC(F)(F)C3=O)cc12` [Compound 325, N-(1-(tert-butyl)-1H-pyrazol-4-yl)-2-(4-((6-(3,3-difluoro-2-oxopyrrolidin-1-yl)quinolin-4-yl)oxy)-3-methylphenyl) acetamide], the IC50 is less than 2.5 nM.

Turning to `Cc1cc(CC(=O)Nc2cc(C(C)(C)CO)n[nH]2)ccc1Oc1ccnc2ccc(S(C)(=O)=O)cc12` [Compound 328, N-(5-(1-hydroxy-2-methylpropan-2-yl)-1H-pyrazol-3-yl)-2-(3-methyl-4-((6-(methylsulfonyl)quinolin-4-yl)oxy)phenyl)acetamide], the IC50 is less than 2.5 nM.

Take `Cc1c(Oc2ccnc3ccc(S(C)(=O)=O)cc23)ccc(CC(=O)Nc2cc(C(C)(C)CO)n[nH]2)c1F` [Compound 329, 2-(2-fluoro-3-methyl-4-((6-(methylsulfonyl)quinolin-4-yl)oxy)phenyl)-N-(5-(1-hydroxy-2-methylpropan-2-yl)-1H-pyrazol-3-yl)acetamide]: the IC50 is less than 2.5 nM.

On to `COC(C)(C)c1cc(NC(=O)Cc2ccc(Oc3ccnc4ccc(S(C)(=O)=O)cc34)c(C)c2)[nH]n1` [Compound 330, N-(5-(2-methoxypropan-2-yl)-1H-pyrazol-3-yl)-2-(3-methyl-4-((6-(methylsulfonyl)quinolin-4-yl)oxy)phenyl)acetamide], for which the IC50 was less than 2.5 nM.

For the compound `COC(C)(C)c1cc(NC(=O)Cc2ccc(Oc3ccnc4ccc(S(C)(=O)=O)cc34)c(C)c2F)[nH]n1` [Compound 331, 2-(2-fluoro-3-methyl-4-((6-(methylsulfonyl)quinolin-4-yl)oxy)phenyl)-N-(5-(2-methoxypropan-2-yl)-1H-pyrazol-3-yl)acetamide], the IC50 is less than 2.5 nM.

With `Cc1cc(CC(=O)Nc2cnn(C(C)(C)C)c2)ccc1Oc1ccnc2ccc(S(=O)(=O)CC3CNC3)cc12` [Compound 332, 2-(4-((6-((azetidin-3-ylmethyl)sulfonyl)quinolin-4-yl)oxy)-3-methylphenyl)-N-(1-(tert-butyl)-1H-pyrazol-4-yl)acetamide], the IC50 is less than 2.5 nM.

Turning to `Cc1c(Oc2ccnc3ccc(C(=O)O)cc23)ccc(CC(=O)Nc2cnn(C(C)(C)C)c2)c1F` [Compound 333, 4-(4-(2-((1-(tert-butyl)-1H-pyrazol-4-yl)amino)-2-oxoethyl)-3-fluoro-2-methyl-phenoxy) quinoline-6-carboxylic acid], the IC50 was less than 2.5 nM.

Take `Cc1c(Oc2ccnc3ccc(C(N)=O)cc23)ccc(CC(=O)Nc2cnn(C(C)(C)C)c2)c1F` [Compound 334, 4-(4-(2-((1-(tert-butyl)-1H-pyrazol-4-yl)amino)-2-oxoethyl)-3-fluoro-2-methyl-phenoxy) quinoline-6-carboxamide]: the IC50 was less than 2.5 nM.

Consider `CNC(=O)c1ccc2nccc(Oc3ccc(CC(=O)Nc4cnn(C(C)(C)C)c4)c(F)c3C)c2c1` [Compound 335, 4-(4-(2-((1-(tert-butyl)-1H-pyrazol-4-yl)amino)-2-oxoethyl)-3-fluoro-2-methyl-phenoxy)-N-methyl-quinoline-6-carboxamide], for which the IC50 was less than 2.5 nM.

Turning to `Cc1c(Oc2ccnc3ccc(C(=O)N(C)C)cc23)ccc(CC(=O)Nc2cnn(C(C)(C)C)c2)c1F` [Compound 336, 4-(4-(2-((1-(tert-butyl)-1H-pyrazol-4-yl)amino)-2-oxoethyl)-3-fluoro-2-methyl-phenoxy)-N,N-dimethyl-quinoline-6-carboxamide], the IC50 was less than 2.5 nM.

Turning to `Cc1c(Oc2ccnc3ccc(C(=O)NCC(F)(F)F)cc23)ccc(CC(=O)Nc2cnn(C(C)(C)C)c2)c1F` [Compound 337, 4-(4-(2-((1-(tert-butyl)-1H-pyrazol-4-yl)amino)-2-oxoethyl)-3-fluoro-2-methyl-phenoxy)-N-(2,2,2-trifluoroethyl) quinoline-6-carboxamide], the IC50 was less than 2.5 nM.

As for `CCNC(=O)c1ccc2nccc(Oc3ccc(CC(=O)Nc4cnn(C(C)(C)C)c4)c(F)c3C)c2c1` [Compound 338, 4-(4-(2-((1-(tert-butyl)-1H-pyrazol-4-yl)amino)-2-oxoethyl)-3-fluoro-2-methyl-phenoxy)-N-ethylquinoline-6-carboxamide], the IC50 is less than 2.5 nM.

`Cc1c(Oc2ccnc3ccc(C(=O)NCCO)cc23)ccc(CC(=O)Nc2cnn(C(C)(C)C)c2)c1F` [Compound 339, 4-(4-(2-((1-(tert-butyl)-1H-pyrazol-4-yl)amino)-2-oxoethyl)-3-fluoro-2-methyl-phenoxy)-N-(2-hydroxyethyl) quinoline-6-carboxamide]: the IC50 was less than 2.5 nM.

Take `Cc1c(Oc2ccnc3ccc(C(=O)N(C)CCO)cc23)ccc(CC(=O)Nc2cnn(C(C)(C)C)c2)c1F` [Compound 340, 4-(4-(2-((1-(tert-butyl)-1H-pyrazol-4-yl)amino)-2-oxoethyl)-3-fluoro-2-methyl-phenoxy)-N-(2-hydroxyethyl)-N-methyl-quinoline-6-carboxamide]: the IC50 is less than 2.5 nM.

For the compound `Cc1c(Oc2ccnc3ccc(C(=O)N(CCO)CCO)cc23)ccc(CC(=O)Nc2cnn(C(C)(C)C)c2)c1F` [Compound 341, 4-(4-(2-((1-(tert-butyl)-1H-pyrazol-4-yl)amino)-2-oxoethyl)-3-fluoro-2-methyl-phenoxy)-N,N-bis(2-hydroxyethyl) quinoline-6-carboxamide], the IC50 is less than 2.5 nM.

With `COCCNC(=O)c1ccc2nccc(Oc3ccc(CC(=O)Nc4cnn(C(C)(C)C)c4)c(F)c3C)c2c1` [Compound 342, 4-(4-(2-((1-(tert-butyl)-1H-pyrazol-4-yl)amino)-2-oxoethyl)-3-fluoro-2-methyl-phenoxy)-N-(2-methoxyethyl) quinoline-6-carboxamide], the IC50 is less than 2.5 nM.

In the case of `COCCN(C)C(=O)c1ccc2nccc(Oc3ccc(CC(=O)Nc4cnn(C(C)(C)C)c4)c(F)c3C)c2c1` [Compound 343, 4-(4-(2-((1-(tert-butyl)-1H-pyrazol-4-yl)amino)-2-oxoethyl)-3-fluoro-2-methyl-phenoxy)-N-(2-methoxyethyl)-N-methyl-quinoline-6-carboxamide], the IC50 is less than 2.5 nM.

As for `Cc1c(Oc2ccnc3ccc(C(=O)N4CCC4)cc23)ccc(CC(=O)Nc2cnn(C(C)(C)C)c2)c1F` [Compound 344, 2-(4-((6-(azetidine-1-carbonyl)quinolin-4-yl)oxy)-2-fluoro-3-methyl-phenyl)-N-(1-(tert-butyl)-1H-pyrazol-4-yl)acetamide], the IC50 was less than 2.5 nM.
